Values of other authors as cited in patent publication US6790965B1, “Combinatorial dihydrobenzopyran library” (Pharmacopeia Drug Discovery, Inc., priority 1994, dated 2004).

Target: bovine carbonic anhydrase (Bos taurus, UniProt P00921)
Conditions: relatively weak inhibitor, displaced by increased dansylamide concentration

bovine carbonic anhydrase, sequence (P00921 whole entry): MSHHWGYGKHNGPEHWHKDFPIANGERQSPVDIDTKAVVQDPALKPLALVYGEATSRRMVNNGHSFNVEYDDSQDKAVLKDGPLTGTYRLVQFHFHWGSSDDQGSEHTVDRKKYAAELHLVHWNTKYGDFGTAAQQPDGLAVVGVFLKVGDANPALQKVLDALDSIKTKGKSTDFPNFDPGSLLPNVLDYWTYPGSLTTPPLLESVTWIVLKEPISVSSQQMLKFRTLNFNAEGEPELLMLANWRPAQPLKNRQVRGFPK

Ki: ~75 nM
SMILES: NS(=O)(=O)c1cc2c(cc1Cl)N=CNS2(=O)=O [chlorothiazide]
